{"source": "patent US12636274B2", "about": "“Pharmaceutical compositions and methods for systemic treatment of solid tumors” (7 HILLS INTERESTS LLC, priority 2014, dated 2026)", "key": {"[1]": {"molecular_target": "aiibb3/Fibrinogen (Homo sapiens, UniProt P05106+P08514)", "sequence (P08514 32-887 limits assumed)": "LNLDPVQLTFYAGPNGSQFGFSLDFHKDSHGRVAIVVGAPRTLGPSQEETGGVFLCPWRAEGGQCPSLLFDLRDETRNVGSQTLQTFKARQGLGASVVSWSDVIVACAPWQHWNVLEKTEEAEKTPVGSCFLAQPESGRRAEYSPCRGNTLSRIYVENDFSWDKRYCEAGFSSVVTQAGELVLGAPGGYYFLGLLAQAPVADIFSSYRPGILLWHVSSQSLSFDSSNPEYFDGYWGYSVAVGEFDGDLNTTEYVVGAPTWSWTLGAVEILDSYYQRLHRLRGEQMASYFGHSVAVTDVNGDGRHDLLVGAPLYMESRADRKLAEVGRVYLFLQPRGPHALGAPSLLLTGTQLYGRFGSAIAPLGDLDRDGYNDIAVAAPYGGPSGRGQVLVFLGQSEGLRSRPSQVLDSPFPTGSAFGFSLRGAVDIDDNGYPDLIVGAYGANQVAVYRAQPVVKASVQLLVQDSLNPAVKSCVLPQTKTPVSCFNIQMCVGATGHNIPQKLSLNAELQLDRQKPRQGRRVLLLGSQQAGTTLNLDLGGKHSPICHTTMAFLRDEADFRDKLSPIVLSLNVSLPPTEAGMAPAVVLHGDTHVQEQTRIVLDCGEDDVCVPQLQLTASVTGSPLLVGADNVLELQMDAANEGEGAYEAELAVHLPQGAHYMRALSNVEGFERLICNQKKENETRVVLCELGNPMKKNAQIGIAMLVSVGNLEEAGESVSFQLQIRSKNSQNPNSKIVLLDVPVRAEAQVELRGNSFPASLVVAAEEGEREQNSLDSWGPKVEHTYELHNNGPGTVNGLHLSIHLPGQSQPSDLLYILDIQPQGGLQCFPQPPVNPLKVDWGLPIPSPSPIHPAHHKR", "sequence (P08514 891-1039 limits assumed)": "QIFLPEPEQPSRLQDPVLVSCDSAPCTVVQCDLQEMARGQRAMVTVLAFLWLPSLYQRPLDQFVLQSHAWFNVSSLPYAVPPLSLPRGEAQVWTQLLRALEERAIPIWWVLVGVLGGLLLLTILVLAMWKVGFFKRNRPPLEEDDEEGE", "sequence (P05106 27-788)": "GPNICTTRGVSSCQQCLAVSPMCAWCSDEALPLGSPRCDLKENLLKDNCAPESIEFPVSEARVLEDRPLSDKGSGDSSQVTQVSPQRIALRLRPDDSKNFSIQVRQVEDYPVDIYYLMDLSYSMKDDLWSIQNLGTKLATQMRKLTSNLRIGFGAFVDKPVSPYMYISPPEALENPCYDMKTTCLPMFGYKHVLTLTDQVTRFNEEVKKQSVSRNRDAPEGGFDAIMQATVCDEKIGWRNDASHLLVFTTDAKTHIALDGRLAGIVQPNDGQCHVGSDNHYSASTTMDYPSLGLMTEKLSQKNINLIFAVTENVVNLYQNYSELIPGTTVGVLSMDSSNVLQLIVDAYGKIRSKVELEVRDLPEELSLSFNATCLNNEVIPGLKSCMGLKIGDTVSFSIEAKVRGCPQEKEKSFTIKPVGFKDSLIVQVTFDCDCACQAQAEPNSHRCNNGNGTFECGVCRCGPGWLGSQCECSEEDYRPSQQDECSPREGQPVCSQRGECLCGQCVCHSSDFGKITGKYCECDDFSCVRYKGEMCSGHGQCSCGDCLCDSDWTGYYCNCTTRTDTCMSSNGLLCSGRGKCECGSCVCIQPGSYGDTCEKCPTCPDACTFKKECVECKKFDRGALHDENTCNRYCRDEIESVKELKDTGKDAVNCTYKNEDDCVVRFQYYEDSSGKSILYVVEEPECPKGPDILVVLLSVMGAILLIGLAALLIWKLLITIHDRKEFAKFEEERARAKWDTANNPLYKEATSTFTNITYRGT", "experiment": "Integrin activation, adhesion aiibb3/Fibrinogen", "type": "cell-based", "set-up": "key: Not Active: Not active: ≤2 fold increase in adhesion", "details": "50% serum; n = 3", "excerpt": "(§1) Activating all integrins is necessary for firm endothelial cell adhesion for extravasation."}, "[2]": {"molecular_target": "LFA-1/ICAM-1 (Homo sapiens, UniProt P05107+P20701)", "experiment": "LFA-1 dependent cell adhesion to ICAM-1", "type": "cell-based", "details": "FIG. 4; ICAM-1 and Cmpd 1 versus BSA, ICAM-1 alone, Ig and anti-integrin antibodies", "excerpt": "Referring now to FIG. 4, a histogram is shown of induced LFA-1 ([…]) dependent cell adhesion to ICAM-1 in the presence of BSA, ICAM-1, ICAM-1 and a compound of Formula (I) (Cmpd 1), Ig, anti-α4, anti-αL, anti-β1, and anti-β2.\nas §1"}, "[3]": {"molecular_target": "α2b1/Collagen I (Homo sapiens, UniProt P05556+P17301)", "sequence (P17301 30-1181)": "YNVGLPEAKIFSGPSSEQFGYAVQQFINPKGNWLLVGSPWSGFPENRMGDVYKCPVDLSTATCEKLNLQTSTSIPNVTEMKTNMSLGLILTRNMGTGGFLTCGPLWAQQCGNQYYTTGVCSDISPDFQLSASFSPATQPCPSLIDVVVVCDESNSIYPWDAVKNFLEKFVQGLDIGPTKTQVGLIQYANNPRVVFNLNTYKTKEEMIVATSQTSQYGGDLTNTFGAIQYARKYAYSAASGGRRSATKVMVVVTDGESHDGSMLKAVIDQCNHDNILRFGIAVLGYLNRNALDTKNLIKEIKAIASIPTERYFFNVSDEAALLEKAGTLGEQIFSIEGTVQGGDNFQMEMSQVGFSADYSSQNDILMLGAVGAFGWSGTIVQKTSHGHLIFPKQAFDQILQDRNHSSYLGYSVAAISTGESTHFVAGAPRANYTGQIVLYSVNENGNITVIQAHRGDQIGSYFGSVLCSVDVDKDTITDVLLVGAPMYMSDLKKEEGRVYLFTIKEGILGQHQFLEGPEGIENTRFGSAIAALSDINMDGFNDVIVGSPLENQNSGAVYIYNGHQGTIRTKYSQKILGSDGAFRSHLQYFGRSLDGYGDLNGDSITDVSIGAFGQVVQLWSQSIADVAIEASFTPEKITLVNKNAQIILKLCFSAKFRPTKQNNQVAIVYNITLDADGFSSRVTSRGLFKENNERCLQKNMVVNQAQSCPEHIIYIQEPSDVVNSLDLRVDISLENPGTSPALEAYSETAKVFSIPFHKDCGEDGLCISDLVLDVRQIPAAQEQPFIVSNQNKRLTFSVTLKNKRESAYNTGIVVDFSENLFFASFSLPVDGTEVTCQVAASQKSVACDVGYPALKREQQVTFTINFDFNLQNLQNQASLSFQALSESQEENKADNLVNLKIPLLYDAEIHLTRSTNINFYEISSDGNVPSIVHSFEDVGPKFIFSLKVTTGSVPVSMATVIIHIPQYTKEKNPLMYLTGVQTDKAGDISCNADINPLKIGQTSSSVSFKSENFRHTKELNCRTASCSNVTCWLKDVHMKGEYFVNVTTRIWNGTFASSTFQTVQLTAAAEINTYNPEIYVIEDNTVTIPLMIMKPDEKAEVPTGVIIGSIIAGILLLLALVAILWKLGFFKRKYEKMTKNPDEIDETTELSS", "sequence (P05556 21-798)": "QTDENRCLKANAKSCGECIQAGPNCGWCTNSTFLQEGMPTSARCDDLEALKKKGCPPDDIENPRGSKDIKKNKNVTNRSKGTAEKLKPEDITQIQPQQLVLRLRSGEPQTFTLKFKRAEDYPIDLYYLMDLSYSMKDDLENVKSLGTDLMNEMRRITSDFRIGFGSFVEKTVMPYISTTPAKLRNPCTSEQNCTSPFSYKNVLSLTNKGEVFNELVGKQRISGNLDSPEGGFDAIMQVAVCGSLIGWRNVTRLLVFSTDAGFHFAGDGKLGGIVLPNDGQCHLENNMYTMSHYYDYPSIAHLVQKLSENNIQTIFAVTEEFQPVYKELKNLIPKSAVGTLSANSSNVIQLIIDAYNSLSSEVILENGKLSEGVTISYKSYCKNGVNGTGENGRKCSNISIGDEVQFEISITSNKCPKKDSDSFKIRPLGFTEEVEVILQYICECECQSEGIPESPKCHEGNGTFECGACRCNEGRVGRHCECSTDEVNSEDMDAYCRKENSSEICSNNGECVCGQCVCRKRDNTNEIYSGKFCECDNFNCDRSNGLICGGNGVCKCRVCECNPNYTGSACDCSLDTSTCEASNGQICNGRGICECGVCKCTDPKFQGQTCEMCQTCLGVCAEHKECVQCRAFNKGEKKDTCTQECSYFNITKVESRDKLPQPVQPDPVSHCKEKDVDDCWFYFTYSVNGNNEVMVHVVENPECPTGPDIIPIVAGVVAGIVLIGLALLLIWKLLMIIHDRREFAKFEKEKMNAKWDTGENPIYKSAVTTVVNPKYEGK", "experiment": "Integrin activation, adhesion α2b1/Collagen I", "type": "cell-based", "set-up": "key: Not Active: Not active: ≤2 fold increase in adhesion", "details": "50% serum; n = 3", "excerpt": "as §1"}, "[4]": {"system": "CT26 colon cancer syngeneic tumor", "experiment": "Study 1: CT26 syngeneic tumor model in Balb/c mice", "type": "in vivo, Mouse (Mus musculus)", "description": "(§2) Mouse colon carcinoma CT26 cells were obtained from American Type Culture Collection (ATCC), USA. Cells were grown in RPMI-1640 medium (Sigma, Cat # R6504) supplemented with 10% FBS (Invitrogen, Cat #10438-026), and 1% penicillin streptomycin (Thermo Fisher Scientific, Cat #15140-122). To establish allografts, 1 million CT26 cells were suspended in 50 μL of serum-free medium and mixed at 1:1 ratio with matrigel before implanting subcutaneously into the right flank of mice.\n(§3) Prior to inoculation, the skin on the injection site was swabbed with alcohol. To establish allografts, CT26 cells were suspended in serum free medium at a concentration of (1×10^6)/50 μL, mixed with equal volume of matrigel (1:1 ratio) and 100 μL of this mixture was injected to each mouse by subcutaneous implantation using a 1 mL BD syringe attached to a 24 gauge needle.\n(§4) CT26 tumor xenografts were measured after approximately 1 week of cell inoculation when they become palpable. When the average tumor volume reaches around 110 mm^3, animals were randomized into treatment groups group maintaining the average tumor volume of each group similar across groups for Study 1 and Study 2. In Study 3, the animals were randomized on the basis of body weights +1 day post cell implantation.\n(§5) Tumor dimensions (length and breadth) were measured on days 0 (animal randomization based on tumor volume) and thrice weekly thereafter until study termination. Tumor volumes were calculated using the formula (b^2*l)*0.52 where l=length, b=breadth (Dusan Djokovic et al., BMC Cancer, 2010, 10:641). Tumor growth inhibition was calculated after normalizing the tumor volume on a given day to that on day 1.\n(§6) Mean body weight loss and percent changes were calculated for each group. Similarly, mean tumor volume and percent tumor growth inhibition were calculated. The percent tumor growth inhibition (% TGI) as a function of anti-tumor efficacy were computed with respect to untreated vehicle control by comparing to the tumor volumes of day 1 using formula described below: % TGI=[1−(Treatment TVFinal−Treatment TVInitial)/(Control TVFinal−Control TVInitial)]*100\nThe test agent, Compound 1 was evaluated in CT26 syngeneic tumor model in Balb/c mice. Compound 1 was administered in mice when the starting tumor volume reached 109±7.1 mm^3 eight days after implantation of CT26 cells."}, "[5]": {"system": "CT26 colon cancer syngeneic tumor", "experiment": "Study 3: CT26 syngeneic tumor model in Balb/c mice, treatment from +1 day after implantation", "type": "in vivo, Mouse (Mus musculus)", "description": "as §2, §3, §4, §5, §6\nThe test agent, Compound 1 was evaluated in CT26 syngeneic tumor model in Balb/c mice. Compound 1 was administered in mice +1 day after CT26 cell implantation. Tumors were not measurable at this time, however, tumors became palpable on day 7 and tumors were measured from that point."}}, "data": [{"smiles": "O=C(OCCOCCOCCOC(=O)N(Cc1cccs1)Cc1cccs1)N(Cc1cccs1)Cc1cccs1", "note": "[Compound 1, 3-oxo-1-(2-thienyl)-2-(2-thienylmethyl)-4,7,10-trioxa-2-azadodecan-12-yl bis(2-thienylmethyl)carbamate]", "values": [{"measurement": "Integrin Selectivity EC50 aiibb3/Fibrinogen", "setting": "[1]", "value": "Not Active"}, {"measurement": "bound cells, adhesion to ICAM-1", "setting": "[2]", "value": "highest bound cells"}, {"measurement": "Integrin Selectivity EC50 α2b1/Collagen I", "setting": "[3]", "value": "Not Active"}, {"measurement": "% Tumor Growth Inhibition", "setting": "[4]; Study 1, 1 mg/kg IP QD at 4 h, Day 4", "value": 36.1, "unit": "%"}, {"measurement": "% Tumor Growth Inhibition", "setting": "[4]; Study 1, 1 mg/kg IP QD at 4 h, Day 6", "value": 41.4, "unit": "%"}, {"measurement": "% Tumor Growth Inhibition", "setting": "[4]; Study 1, 1 mg/kg IP QD at 4 h, Day 8", "value": 61.5, "unit": "%"}, {"measurement": "% Tumor Growth Inhibition", "setting": "[4]; Study 1, 1 mg/kg IP QD at 4 h, Day 11", "value": 64.4, "unit": "%"}, {"measurement": "% Tumor Growth Inhibition", "setting": "[4]; Study 1, 1 mg/kg IP QD at 4 h, Day 13", "value": 55.4, "unit": "%"}, {"measurement": "% Tumor Growth Inhibition", "setting": "[4]; Study 1, 20 mg/kg PO QD at 4 h, Day 4", "value": "−6.1", "unit": "%"}, {"measurement": "% Tumor Growth Inhibition", "setting": "[4]; Study 1, 20 mg/kg PO QD at 4 h, Day 6", "value": 16.5, "unit": "%"}, {"measurement": "% Tumor Growth Inhibition", "setting": "[4]; Study 1, 20 mg/kg PO QD at 4 h, Day 8", "value": 38.2, "unit": "%"}, {"measurement": "% Tumor Growth Inhibition", "setting": "[4]; Study 1, 20 mg/kg PO QD at 4 h, Day 11", "value": 42.2, "unit": "%"}, {"measurement": "% Tumor Growth Inhibition", "setting": "[4]; Study 1, 20 mg/kg PO QD at 4 h, Day 13", "value": 36.2, "unit": "%"}, {"measurement": "tolerability in term of body weights of animals", "setting": "[4]; Study 1, oral (20 mg/kg QD) and intraperitoneal (1 mg/kg QD) routes", "value": "well tolerated"}, {"measurement": "growth of established CT26 tumors", "setting": "[4]; single agent, orally or intraperitoneally once daily for up to 30 days", "value": "delayed the growth"}, {"measurement": "Average Tumor Volume, Mean", "setting": "[5]; 1 mg/kg BID (IP), Day 7", "value": 91, "unit": "mm^3"}, {"measurement": "Average Tumor Volume, Mean", "setting": "[5]; 1 mg/kg BID (IP), Day 10", "value": 159, "unit": "mm^3"}, {"measurement": "Average Tumor Volume, Mean", "setting": "[5]; 1 mg/kg BID (IP), Day 12", "value": 269, "unit": "mm^3"}, {"measurement": "Average Tumor Volume, Mean", "setting": "[5]; 1 mg/kg BID (IP), Day 14", "value": "342^‡ mm^3"}, {"measurement": "Average Tumor Volume, Mean", "setting": "[5]; 1 mg/kg BID (IP), Day 16", "value": "512^‡‡ mm^3"}, {"measurement": "Average Tumor Volume, Mean", "setting": "[5]; 1 mg/kg BID (IP), Day 18", "value": "689^‡‡ mm^3"}, {"measurement": "Average Tumor Volume, Mean", "setting": "[5]; 1 mg/kg IP QD, Day 7", "value": 96, "unit": "mm^3"}, {"measurement": "Average Tumor Volume, Mean", "setting": "[5]; 1 mg/kg IP QD, Day 10", "value": 193, "unit": "mm^3"}, {"measurement": "Average Tumor Volume, Mean", "setting": "[5]; 1 mg/kg IP QD, Day 12", "value": 312, "unit": "mm^3"}, {"measurement": "Average Tumor Volume, Mean", "setting": "[5]; 1 mg/kg IP QD, Day 14", "value": "415^† mm^3"}, {"measurement": "Average Tumor Volume, Mean", "setting": "[5]; 1 mg/kg IP QD, Day 16", "value": "566^†† mm^3"}, {"measurement": "Average Tumor Volume, Mean", "setting": "[5]; 1 mg/kg IP QD, Day 18", "value": "768^‡ mm^3"}, {"measurement": "inhibition in tumor volume (TGI)", "setting": "[5]; IP BID (1 mg/kg), day 14, p<0.01", "value": 57.6, "unit": "%"}, {"measurement": "inhibition in tumor volume (TGI)", "setting": "[5]; IP QD (1 mg/kg), day 14, p<0.05", "value": 46.1, "unit": "%"}]}]}
